In PubChem BioAssay (NCI):
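Tested at 5 concentrations; 48 h exposure; 96-well plates; endpoints linearly interpolated, else capped at highest concentration. TGI denotes the concentration required for complete inhibition of growth.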 Where a SMILES comes first, the peptide text is derived from it. [ ]: non-standard residue; d: D form. The star is where a group is joined. Cbz = O=C(OCc1ccccc1)*; Aib = CC(C)(N)C(=O)O; OBn = c1ccc(CO*)cc1

Legend:
Assay in all cases: NCI anticancer screen, dose series, 48 h
DMS 273 small cell lung = test system: DMS 273 small cell lung
HCT-15 colon = test system: HCT-15 colon
HOP-18 NSCLC = test system: HOP-18 NSCLC
NCI-H522 lung = test system: NCI-H522 lung
RXF 393 renal = test system: RXF 393 renal
SK-MEL-28 melanoma = test system: SK-MEL-28 melanoma
SNB-19 CNS = test system: SNB-19 CNS
TK-10 renal = test system: TK-10 renal
XF 498 CNS = test system: XF 498 CNS
OVCAR-3 ovarian = test system: OVCAR-3 ovarian
UO-31 renal = test system: UO-31 renal
HS 578T breast = test system: HS 578T breast

O=C(NN1C(=O)CS(=O)(=O)C1c1ccc(C(F)(F)F)cc1)c1ccncc1 (centres undefined)
TGI (DMS 273 small cell lung): > 100 µM | TGI (HCT-15 colon): > 100 µM | TGI (HOP-18 NSCLC): > 100 µM | TGI (NCI-H522 lung): > 100 µM | TGI (RXF 393 renal): > 100 µM | TGI (SK-MEL-28 melanoma): > 100 µM | TGI (SNB-19 CNS): > 100 µM | TGI (TK-10 renal): > 100 µM | TGI (XF 498 CNS): > 100 µM

COc1cc(C2c3cc4c(cc3[C@@H](Nc3ccccc3)C3COC(=O)[C@H]23)OCO4)cc(OC)c1O (some centres undefined)
TGI (DMS 273 small cell lung): 3.35 µM | TGI (HCT-15 colon): 2.43 µM | TGI (HOP-18 NSCLC): 22.6 µM | TGI (NCI-H522 lung): 3.7 µM | TGI (OVCAR-3 ovarian): 7.34 µM | TGI (RXF 393 renal): 6.8 µM | TGI (SK-MEL-28 melanoma): 23.1 µM | TGI (SNB-19 CNS): 11.3 µM | TGI (UO-31 renal): 5.07 µM | TGI (XF 498 CNS): 7.84 µM

O=C1NC(O)CCN1C1OC(CO)C(O)C1O (centres undefined)
TGI (DMS 273 small cell lung): > 250 µM | TGI (HCT-15 colon): > 250 µM | TGI (HOP-18 NSCLC): > 250 µM | TGI (NCI-H522 lung): 247 µM | TGI (OVCAR-3 ovarian): > 250 µM | TGI (RXF 393 renal): > 250 µM | TGI (SK-MEL-28 melanoma): > 250 µM | TGI (SNB-19 CNS): > 250 µM | TGI (UO-31 renal): > 250 µM | TGI (XF 498 CNS): > 250 µM

CC(NC(=O)C(C)(C)NC(=O)C(CC(=O)OCc1ccccc1)NC(=O)OCc1ccccc1)C(N)=O (centres undefined) (Cbz-Asp(OBn)-[Aib]-Ala-NH2; configuration not given here)
TGI (HCT-15 colon): > 100 µM | TGI (HS 578T breast): > 100 µM | TGI (NCI-H522 lung): > 100 µM | TGI (OVCAR-3 ovarian): > 100 µM | TGI (RXF 393 renal): > 100 µM | TGI (SK-MEL-28 melanoma): > 100 µM | TGI (SNB-19 CNS): > 100 µM | TGI (TK-10 renal): > 100 µM | TGI (UO-31 renal): > 100 µM

c1ccc(C(C(=Nc2ccc(Cc3ccc(N=C(C(c4ccccc4)c4ccccc4)N4CC4)cc3)cc2)N2CC2)c2ccccc2)cc1
TGI (HCT-15 colon): 21.7 µM | TGI (HS 578T breast): 35.7 µM | TGI (NCI-H522 lung): 19.8 µM | TGI (OVCAR-3 ovarian): 24.6 µM | TGI (RXF 393 renal): 16.1 µM | TGI (SK-MEL-28 melanoma): 21.4 µM | TGI (SNB-19 CNS): 27.7 µM | TGI (TK-10 renal): 34.5 µM | TGI (UO-31 renal): 14.8 µM

CC(C)N1CCN(c2ccc(OCC3COC(Cn4cncn4)(c4ccc(Cl)cc4Cl)O3)cc2)CC1 (centres undefined)
TGI (HCT-15 colon): 26.5 µM | TGI (HS 578T breast): 31 µM | TGI (NCI-H522 lung): 30.4 µM | TGI (OVCAR-3 ovarian): 31 µM | TGI (RXF 393 renal): 25 µM | TGI (SK-MEL-28 melanoma): 12.3 µM | TGI (SNB-19 CNS): > 57.4 µM | TGI (TK-10 renal): 26.1 µM | TGI (UO-31 renal): > 42.5 µM

CC1=C(C#N)c2nc3ccccc3n2C(=O)C1(C)CCO (centres undefined)
TGI (HCT-15 colon): > 100 µM | TGI (HS 578T breast): > 100 µM | TGI (NCI-H522 lung): > 100 µM | TGI (OVCAR-3 ovarian): > 100 µM | TGI (RXF 393 renal): > 100 µM | TGI (SK-MEL-28 melanoma): > 100 µM | TGI (SNB-19 CNS): > 100 µM | TGI (TK-10 renal): > 100 µM | TGI (UO-31 renal): > 100 µM

COc1ccc(C(=O)NCCN(C)C)c2nc3ccccc3cc12
TGI (HCT-15 colon): 7.22 µM | TGI (HS 578T breast): 4.91 µM | TGI (NCI-H522 lung): 2.6 µM | TGI (OVCAR-3 ovarian): 9.93 µM | TGI (RXF 393 renal): 6.67 µM | TGI (SK-MEL-28 melanoma): 7.11 µM | TGI (SNB-19 CNS): 9.49 µM | TGI (TK-10 renal): 5.42 µM | TGI (UO-31 renal): 5.14 µM
